Columns and labels:
[1] = tested on: BACE-1; assay: BACE-1 mRNA expression in HTB-11 cells (RT-PCR)
Description: (§1) SH-SY5Y human neuroblastoma cells (ATCC, USA) were cultured in Dulbecco's modified Eagle's medium/Ham's nutrient mixture (DMEM-F12) (Invitrogen, USA), and HTB-11 human neuroblastoma cells (ATCC, USA) were cultured in Minimum Essential Medium Alpha Medium (MEM-α) (Invitrogen, USA). […] All treatments were performed under a sterile hood.
(§2) After the treatment time-period, cells were harvested, and total RNA was extracted using RNeasy RNA Isolation kit (Qiagen) following the manufacturer's procedures. Total RNA yield was determined using a Spectrophotometer RNA/DNA calculator (Pharmacia Biotech). Total RNA concentration was then standardized for semi-quantitative RT-PCR, which was carried out in a Geneamp Thermocycler PCR System 9700 (P.E. Applied Biosystems). […] PCR products and a 100 bp DNA marker were then loaded in a 2% agarose gel stained with ethidium bromide. Gel electrophoresis was performed using a power-supply (E-C Apparatus Corp.) set at 110V with constant amperage for 1.5 hours. Gels were then photographed using a Gel Documentation System (UVP), and bands analyzed using Gel-Pro Analyzer (MediaCybernetics) on a P4 Windows machine.

[2] = tested on: BACE-2; assay: BACE-2 mRNA expression in HTB-11 cells (RT-PCR)
Description: as §1, §2

[3] = tested on: Mytilus edulis pedal ganglia; assay: Endogenous morphine levels in excised pedal ganglia incubated in vitro (HPLC, RIA); type: cell-based; conditions: for morphine per ganglion wet weight / ganglionic morphine levels versus control: in vitro; for morphine per ganglion wet weight: 5-hydroxytryptophan 1 μg/gm tissue, vehicle 2.1±0.44; for effect of enzyme inhibitor on precursor-induced morphine production: quinidine with tyramine, AMPT with tyrosine, concentration dependent; for morphine in ganglia: 10 μg of each compound, control 11.9; for ganglionic morphine levels versus control: 50 and 100 ng, 60 minutes; for ganglionic morphine levels after in vitro incubation: ganglionic wet weight, before: 1.08±0.27 (tyramine), 0.96±0.31 (tyrosine); for share of added precursor converted to morphine: in vitro ganglia incubation; for ganglionic morphine levels after exposure: 10^−6 M (FIG. 20)
[4] = tested on: Mytilus edulis pedal ganglia; assay: Ganglionic morphine levels after injection into the foot of intact animals; conditions: for pedal ganglionic morphine levels after injection: one hour after injection into the foot; for morphine levels after injection of inhibitor alone: 10^−4 M via the foot; for ganglionic morphine levels after injection: 10^−5 M in the foot, one hour, controls 1.02±0.24; for decrease in ganglionic morphine levels when the respective enzyme inhibitor was topically applied: AMPT or quinidine 10^−4 M on pedal ganglia after amino acid injection
Description: For in vivo precursor injection experiments, the animal's foot was injected with either reticuline or L-DOPA (0.1 and 1 μg/injection, respectively). Chemicals were injected by BD 1 cc syringes with 26 G needles. Each needle was inserted into that base of the foot just above the pedal ganglia.
(§3) For in vivo treatments, the animal's foot (20 animals per treatment) was injected with tyrosine (10^−5 M), tyramine (10^−5 M), or saline. Other animals were exposed to the enzyme inhibitors AMPT or quinidine alone or immediately following the respective foot injection. […] All chemicals were purchased from Sigma (St. Louis, Mo.).

[5] = tested on: pedal ganglia; assay: NO release from excised pedal ganglia (NO-selective microprobe); type: cell-based, Mytilus edulis; conditions: for NO Peak Level / NO Peak Time: ligand 10^−7 M
Description: For the nitric oxide assay, ten pedal ganglia (per determination) dissected from M. edulis were bathed in 1 mL sterile phosphate buffered saline (PBS). […] For the opiate receptor antagonist experiments, ganglia were pretreated with naloxone for 10 minutes prior to reticuline addition. NO release was monitored with an NO-selective microprobe manufactured by World Precision Instruments (Sarasota, Fla.). The sensor was positioned approximately 100 μm above the respective tissue surface. […] The NO detection system was calibrated daily. The probe was allowed to equilibrate for 10 minutes in the incubation medium free of tissue before being transferred to vials containing the ganglia for another 5 minutes. Manipulation and handling of the ganglia was only performed with glass instruments. Data was acquired using the Apollo-4000 free radical analyzer (World Precision Instruments, Sarasota, Fla.). The experimental values were then transferred to Sigma-Plot and -Stat (Jandel, Calif.) for graphic representation and evaluation.

[6] = target: T1, mu3 opiate receptor (Homo sapiens, UniProt P35372); assay: biochemical; type: binding
T1 construct: An additional 100 excised pedal ganglia and the human monocytes were separately washed and homogenized; host or cells: human monocytes
Description: For the nitric oxide assay, ten pedal ganglia (per determination) dissected from M. edulis were bathed in 1 mL sterile phosphate buffered saline (PBS). […] NO release was monitored with an NO-selective microprobe manufactured by World Precision Instruments (Sarasota, Fla.). The sensor was positioned approximately 100 μm above the respective tissue surface. […] The NO detection system was calibrated daily. The probe was allowed to equilibrate for 10 minutes in the incubation medium free of tissue before being transferred to vials containing the ganglia for another 5 minutes. Manipulation and handling of the ganglia was only performed with glass instruments. Data was acquired using the Apollo-4000 free radical analyzer (World Precision Instruments, Sarasota, Fla.). The experimental values were then transferred to Sigma-Plot and -Stat (Jandel, Calif.) for graphic representation and evaluation.
An additional 100 excised pedal ganglia and the human monocytes were separately washed and homogenized in 50 volumes of 0.32 M sucrose, pH 7.4, at 4° C. using a Brinkmann polytron (30 seconds, setting no. 5). The crude homogenate was centrifuged at 900×g for 10 minutes at 4° C., and the supernatant was reserved on ice. The whitish crude pellet was resuspended by homogenization (15 seconds, setting no. 5) in 30 volumes of 0.32 M sucrose/Tris-HCl buffer, pH 7.4, and centrifuged at 900×g for 10 minutes. The extraction procedure was repeated one more time, and the combined supernatants were centrifuged at 900×g for 10 minutes. The resulting supernatants (S1′) were used immediately. […] The P2 pellet was then re-suspended with a Dounce hand-held homogenizer (10 strokes) in 100 volumes of buffer. […]
Aliquots of membrane suspension (0.2 mL, 0.12 mg of membrane protein) were incubated in triplicate at 22° C. for 40 minutes with the appropriate radiolabeled ligand in the presence of dextrorphan (10 mM) or levorphanol (10 mM) in 10 mM Tris-HCl buffer, pH 7.4, containing 0.1% BSA and 150 mM KCl. […] Protein concentration was determined in membrane suspensions (prepared in the absence of BSA).

[7] = tested on: human white blood cells / PMNs; assay: Morphine production by human WBC and PMNs (HPLC, RIA); type: cell-based; conditions: for WBC morphine concentrations versus untreated cells: P<0.001; for Morphine levels in media after the cells were removed: PMNs 3×10^6 cells, THP 100 μg, reticuline 50 μg, L-DOPA 100 μg, L-tyrosine 100 μg; for morphine concentrations in WBC: one-hour treatment, control 12.33±5.64
[8] = tested on: PMNs; assay: PMN activation level by computer-assisted image analysis (form factor); conditions: for level of PMN activation: IL-1β 2 ng/mL one hour, L-DOPA 10^−6 M, untreated 7.3±2.1%
Description: The morphological measurements of PMNs were based on cell area and perimeter determinations by the use of image analysis software (Compix, Mars, Pa.). […] The observational area used for measurement determinations and frame-grabbing was 0.4 μm in diameter.
After this incubation, the PMNs were evaluated for their activity level via computer-assisted image analysis.

[9] = tested on: Mytilus edulis ganglia and hemolymph; assay: Dopamine levels in ganglia and hemolymph (HPLC UV)
Description: Mytilus edulis collected from the local waters of Long Island Sound were maintained as described herein. […] The pedal ganglia were incubated with and without tyrosine or tyramine in the presence of quinidine, a CYP2D6 inhibitor, and alpha methyl para tyrosine (AMPT), which inhibits tyrosine hydroxylase.
as §3
After ganglionic dissection, ganglia were pooled into one eppendorf tube, 1 ml of 1 N HCl was added, and the tissue was sonicated by sonic dismemberator (Fisher scientific, USA). Homogenized tissue was then transferred to a 15 mL polypropylene centrifuge tube (Fisher Scientific, PA, USA). 5 mL of chloroform/isopropanol (9:1, v/v) was added, and the contents of the tube vigorously vortexed for 5 minutes at room temperature. […] Supernatant (water soluble layer) was dispatched into pre-siliconized 1.5 tubes (Midwest Scientific) and kept at 4° C. for immediate use for HPLC determination or stored at −80° C. for further analysis.

[10] = tested on: SK-N-SH neuroblastoma cell line; type: cell-based, human
Description: Cell viability was determined via Trypan blue exclusion. An inverted light microscope (Nikon) with a phase-contrast filter was used to observe the cells. Pictures of the cells were taken via a digital camera (Optronix) attached to the microscope ocular. Images were uploaded onto ImagePro Plus Software (Applied Biosystems), where cell viability was calculated based on both the number of cells covering the field and the cells that present as dead from the stain. In addition, ImagePro Plus was used for determining cellular morphology. The area and perimeter were found and used in the formula (4π*Area)/(Perimeter)^2, resulting in a value between 0 (a straight line) and 1 (a perfect circle).

[11] = tested on: SK-N-SH neuroblastoma cell line; assay: NO release from SK-N-SH neuroblastoma cells
Description: The human SK-N-SH neuroblastoma cell line (ATCC #HTB-11) was used as a cellular model. Cells were propagated in Minimum Essential Medium alpha (MEMα) with 10% fetal bovine serum (FBS), 2% penicillin/streptomycin, 1.5 g/L NaHCO3, and 1.0 mM pyruvic acid. A 5% CO2 incubator (NAPCO) at 37° C. was used for maintenance of temperature and pH. […] When needed, cells were plated in 6- or 12-well plates using a hemocytometer (2×10^5 cells/well in 6-well plates or 1×10^5 cells/well in 12-well plates). Experimental manipulations were performed under sterile conditions under a lamina airflow hood after cells had adhered to the bottom of the plates.

[12] = tested on: SK-N-SH neuroblastoma cell line; assay: Cellular morphology (Form Factor) of neuroblastoma cells; type: cell-based, human; conditions: 10 μM
[13] = tested on: Mytilus animals; assay: TNF-α-induced death of animals; conditions: 10 U/mL TNF-α by injection, after 4 days
Description: 100 healthy Mytilus animals were treated with 10 U/mL of TNF-α by injection.

[14] = 1 μM morphine, 10 μM pre-treatment for twenty minutes

T1 sequence (P35372 1-314 isoform P35372-14): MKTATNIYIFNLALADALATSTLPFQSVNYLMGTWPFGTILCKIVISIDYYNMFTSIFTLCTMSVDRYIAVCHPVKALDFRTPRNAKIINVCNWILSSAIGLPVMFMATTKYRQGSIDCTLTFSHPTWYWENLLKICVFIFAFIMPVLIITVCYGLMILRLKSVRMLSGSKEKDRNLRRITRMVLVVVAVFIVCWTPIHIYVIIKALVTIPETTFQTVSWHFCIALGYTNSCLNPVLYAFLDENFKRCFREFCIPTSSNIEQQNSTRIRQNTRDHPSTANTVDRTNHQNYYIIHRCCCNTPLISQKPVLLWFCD

`CC(=O)NC(C(=O)O)C(C)(C)SN=O` (racemic) [SNAP, S-Nitroso-N-acetyl-D, L-penicillamine] was tested, and the “BACE-1 expression” value ([1]; SNAP 1, 5, 10 μM, 4- and 24-hour exposures) was “reduced BACE-1 expression in a concentration dependent manner” and the “BACE-2 expression” value ([2]; SNAP 1, 5, 10 μM, 4- and 24-hour timepoints) was “up regulated in a concentration dependent manner BACE-2 expression”.

With `N[C@@H](Cc1c[nH]c2ccc(O)cc12)C(=O)O` [5-hydroxytryptophan] the “morphine per ganglion wet weight” value [3] was 2.1±0.41 ng morphine per ganglion and the “pedal ganglionic morphine levels after injection” value [4] was “failed to increase ganglionic morphine levels”.

In the case of `CC(N)(Cc1ccc(O)cc1)C(=O)O` (stereo not drawn) [AMPT, alpha-methyl-para-tyrosine], the “effect of enzyme inhibitor on precursor-induced morphine production” value [3] is reported as “less tyrosine-induced morphine production” and the “morphine levels after injection of inhibitor alone” value [4] is reported as “did not exhibit any change in morphine levels”.

With `CN1CC[C@]23c4c5ccc(O)c4O[C@H]2[C@@H](O)CC[C@H]3[C@H]1C5` [Dihydromorphine, dihydromorphine] the “NO Peak Level” value [5] was 23.2 ± 3.7 nM, the “NO Peak Time” value [5] was 0.9 ± 0.3 min and the IC50 [6] was 19.1 ± 3.3 nM.

For `N[C@@H](Cc1ccc(O)c(O)c1)C(=O)O` [L-DOPA], the “WBC morphine concentrations versus untreated cells” value [7] was “significantly increased WBC morphine concentrations”, the “Morphine levels in media after the cells were removed” value (“Morphine levels in media” for short) [7] was 1.234 ± 0.26 and the “morphine concentrations in WBC” value [7] was 136.5±12.43 pg/million cells. The “level of PMN activation” value [8] was 3.7±0.4%, the “percent of activated cells in mixed PMN population” value ([8]; L-DOPA treated and IL-1β treated PMNs mixed 1:1) was 12.5±3.7% and the morphine in ganglia [3] was 9.31 ng/mL. For the same molecule, the “ganglionic morphine levels versus control” value [3] was “significantly higher”, the “morphine per ganglion wet weight” value [3] was 3.6±0.45 ng morphine per ganglion and the “pedal ganglionic morphine levels after injection” value [4] was “significantly increased pedal ganglionic morphine levels”.

For `N[C@@H](Cc1ccc(O)cc1)C(=O)O` [L-tyrosine], the “Morphine levels in media” value [7] was 2.223 ± 0.38, the “ganglionic morphine levels after in vitro incubation” value [3] was 2.39 ± 0.64 ng/g and the “share of added precursor converted to morphine” value (shortened to “share”) [3] was “About 7%”. For the same molecule, the “ganglionic morphine levels after injection” value [4] was 2.46±0.22 ng/g wet weight and the “decrease in ganglionic morphine levels when the respective enzyme inhibitor was topically applied” value [4] was 30%.

In the case of `COC1=C[C@]23CCN(C)[C@H](Cc4ccc(OC)c(O)c42)C3=CC1=O` [Salutaridine, salutaridine], the “NO Peak Level” value [5] is reported as 18.5 ± 3.3 nM, the “NO Peak Time” value [5] is reported as 8.9 ± 1.3 min and the IC50 [6] is reported as over 1000 nM.

With `Oc1ccc(CC2NCCc3cc(O)c(O)cc32)cc1O` (stereo not drawn) [THP, norlaudanosoline] the “WBC morphine concentrations versus untreated cells” value [7] was “significantly increased WBC morphine concentrations”, the “Morphine levels in media” value [7] was 2.028 ± 0.42 and the “morphine concentrations in WBC” value [7] was 90.25±10.42 pg/million cells. For the same molecule, the “ganglionic morphine levels after exposure” value [3] was “significantly enhanced morphine levels”, the “ganglionic morphine levels versus control” value [3] was “significantly higher” and the “share” value [3] was “About 20%”.

For `NCCc1ccc(O)cc1` [Tyramine, tyramine], the “WBC morphine concentrations versus untreated cells” value [7] was “significantly increased WBC morphine concentrations”, the “ganglionic morphine levels after in vitro incubation” value [3] was 2.51 ± 0.36 ng/g and the “share” value [3] was “About 7%”. For the same molecule, the “ganglionic morphine levels after injection” value [4] was 3.28±0.45 ng/g wet weight, the “decrease in ganglionic morphine levels when the respective enzyme inhibitor was topically applied” value [4] was 25% and the “ganglionic DA level after tyramine injection” value ([9]; from 4.98±0.27) was 9.17±1.21 μg/g wet weight. For the same molecule, the “hemolymph DA level after tyramine” value ([9]; from 10.13±1.24) was 16.47 ± 1.28 µg/mL, the “hemolymph DA (FIG. 19 legend)” value ([9]; tyramine 100 μg/mL incubation, PBS 10.13±0.34) was 16.47±2.28 μg of DA/mL and the “ganglia DA (FIG. 19 legend)” value ([9]; tyramine injection 100 μg/animal, PBS 4.78±0.27) was 9.17±1.21 μg of DA/g.

With `CCc1cccc2cc(C(O)CNC(C)(C)C)oc12` (stereo not drawn) [bufuralol] the “effect on precursor-induced morphine synthesis in PMNs” value [7] was “significantly diminished synthesis of morphine”.

With `COc1ccc2c3c1O[C@H]1[C@@H](O)C=C[C@H]4[C@@H](C2)N(C)CC[C@@]341` [codeine] the “ganglionic morphine levels after exposure” value [3] was “significantly enhanced morphine levels”.

With `NCCc1ccc(O)c(O)c1` [dopamine] the morphine in ganglia [3] was 8.82 ng/mL and the “ganglionic morphine levels after exposure” value [3] was “significantly enhanced morphine levels”.

With `CN1CC[C@]23c4c5ccc(O)c4O[C@H]2[C@@H](O)C=C[C@H]3[C@H]1C5.O=S(=O)(O)O` [morphine sulfate] the confluency [10] was “about 78%” and the “peak NO release” value ([11]; morphine sulfate 5 μM, baseline 2 nM NO) was 22.3 nM.

For `C=CCN1CC[C@]23c4c5ccc(O)c4O[C@H]2C(=O)CC[C@@]3(O)[C@H]1C5` [naloxone], the “effect of naloxone pre-treatment on reticuline-stimulated NO release” value ([5]; naloxone 10^−6 M, reticuline 10^−7 M) was “blocking the reticuline (10^−7 M) stimulated release of NO”, the “effect of pre-treatment on morphine's effect on BACE-1 expression” value [1, 14] was “blocked by naloxone” and the “effect of pre-treatment on morphine's effect on BACE-2 expression” value [2, 14] was “blocked by naloxone”. The “level of activation in mixed PMN population, IL-1β-treated cells co-treated with naloxone” value ([8]; mixed with L-DOPA-treated PMNs) was 35.2±6.3%, the “effect on morphine neuroprotection, Form Factor” value [12] was “reversal in morphine neuroprotection” and the “NO release induced by 10^−6 M morphine in presence of blocker” value ([11]; naloxone 10^−6 M, L-NAME 10^−4 M) was 3.2 nM NO.

In the case of `C=C[C@H]1C[N@@]2CC[C@H]1C[C@@H]2[C@@H](O)c1ccnc2ccc(OC)cc12` [quinidine], the “effect on precursor-induced morphine synthesis in PMNs” value [7] is reported as “blocked morphine synthesis”, the “effect of quinidine on morphine increase by THP, reticuline, DA, or codeine” value ([3]; quinidine 10^−6 M) is reported as “significantly blocked by quinidine exposure” and the “effect of enzyme inhibitor on precursor-induced morphine production” value [3] is reported as “less tyramine-induced morphine production”. The “morphine levels after injection of inhibitor alone” value [4] was “did not exhibit any change in morphine levels”, the “ganglia DA, tyramine and quinidine injections (FIG. 19 legend)” value ([9]; 100 μg/animal) was 2.57±0.32 μg of DA/g and the “effect of quinidine on tyramine-induced DA level increases” value ([9]; ganglionic and hemolymph) was “blocked by quinidine exposure”. The “hemolymph DA, tyramine and quinidine exposure (FIG. 19 legend)” value ([9]; tyramine 100 μg/mL, quinidine 10 μg/mL) was 10.24 μg of DA/mL.

IL-1β: cytokine used to activate PMNs was tested, and the “level of PMN activation” value [8] was 43.4±5.7%.

With TNF-α the animals that died [13] was “about 20%”.

B1: IFNγ: interferon used to simulate an immune response (protein, UniProt P01579 24-161, looked up)
Interferon gamma: QDPYVKEAENLKKYFNAGHSDVADNGTLFLGILKNWKEESDRKIMQSQIVSFYFKLFKNFKDDQSIQKSVETIKEDMNVKFFNSNKKKRDDFEKLTNYSVTDLNVQRKAIHELIQVMAELSPAAKTGKRKRSQMLFRG
With B1 the “cellular death” value ([10]; IFNγ) was “did not cause significant cellular death”.
